What was measured:
[1] = target: recombinant p70 S6 kinase (S6K1) (Homo sapiens, UniProt P23443); assay: In vitro p70 S6 kinase assay (ADP-Glo Kinase assay system); type: biochemical; conditions: 30 min pre-incubation, ATP 10 μM, 1 hr, read-out: IC50, inhibition of recombinant S6K1 activity
Method: Leflunomide and A77 1726 diluted at the final concentrations as indicated were pre-mixed with S6K1 for 30 min, followed by the addition of peptide substrate of S6K1 and incubation for 1 hr. S6K1 activity was measured by using a ADP-Glo™ system. The experiment was repeated with similar results. The data represents the mean±standard deviation from one experiment in triplicate.
The ability of lefiunomide and A77 1726 to inhibit p70 S6 kinase assay was conducted by using an ADP-Glo™ Kinase assay system (Promega Corporation, Madison, Wis.). Briefly, A77 1726 or leflunomide diluted in the kinase buffer was mixed with recombinant p70 S6 kinase (100 ng/reaction) and incubated at room temperature for 30 min. Peptide substrate of p70 S6 kinase (5 μg/reaction) and ATP (10 μM, final concentration) was added, with a total final volume of 25 μl. After incubation for 1 hr, ADP-Glo™ reagent (25 μl) was added to each reaction. After incubation for 40 min, kinase detection substrate (luciferin) (50 μl/reaction) was added. After incubation fix 30 min, luciferase activity was measured by reading in a luminescence plate reader. The experiment was conducted in triplicate and repeated once with similar results. The data from one experiment were presented as mean±standard deviation.

[2] = test system: ribosomal protein S6^S235/S236 phosphorylation; assay: Western blot of S6 phosphorylation in A375 cells; type: cell-based; conditions: Homo sapiens, A-375; read-out: IC50 to inhibit S6 phosphorylation in cell culture
Method: (§1) A375 cells seeded in a 6-well plate were starved in DMEM medium containing 0.5% FBS for 2 hr and treated with the indicated concentration of A77 1726 or PLX 4720 (1 μM) for another 2 hr (A) or treated with A77 1726 (100 μM) for the indicated time (B & C). Cells were harvested and analyzed for protein phosphorylation by specific antibodies as indicated. Protein loading was monitored by stripping membrane and re-probing with antibodies against non-phosphorylated proteins. […] A375 cells seeded in a 6-well plate were starved in DMEM medium containing 05% FBS for 2 hr and treated with the indicated concentration of A77 1726 in the absence or presence of uridine (200 μM). Phosphorylated and total proteins were analyzed by Western blot as described above.
(§2) A375 cells seeded in 6-well plates were starved in DMEM medium containing 0.5% FBS for 2 hr and then pre-treated with vehicle (0.1% dimethyl sulfoxide), LY294002 (10 μM) (A), PPP (1 μM) (B), or the inhibitors of the MAP kinase pathway (PLX4720, 1 μM; U0126, 10 μM; PD98059, 10 μM) (C) for 1 hr. Cells were then treated with A77 1726 (100 μM) or rapamycin (20 nM) as indicated for 2 hr. Cells were harvested and analyzed for protein phosphorylation by specific antibodies as indicated. Protein loading was monitored by stripping membrane and re-probing with antibodies against non-phosphorylated proteins.
(§3) Cells grown in 6-well plates were harvested and lysed in NP-40 lysis buffer (50 mM Tris-HCI (pH 8.0), 150 mM NaCl, 1% NP-40, 5 mM EDTA, 10 μg/ml aprotinin, 10 μg/ml leupeptin, and 1 mM phenylmethylsulfonyl fluoride). After incubation on ice for 30 min, the cell lysates were prepared by spinning down at 4° C., 15,000 rpm for 15 min. After electrophoresis and transfer to Immobolin membrane, proteins of interest were probed with their specific antibodies, followed by horseradish peroxidase-conjugated goat anti-rabbit IgG and SuperSignal Western Pico enhanced chemiluminoscence substrate (Pierce Chemical Co., Rockford, Ill.).
(§4) The PI-3 and MAP kinase pathways play an important role in cell proliferation, differentiation, and cell cycle progress. Multiple genes in these two pathways are frequently mutated and have a commanding role in driving tumorigenesis and tumor cell proliferation (2; 3). […] Here we tested whether A77 1726 affected the activation of MAP and PI-3 kinase pathways. A375 cells grown in 6-well plates were starved in the media containing 0.5% FBS for 2 hr and then treated with the indicated concentration of A77 1726. […] We next explored the effect of A77 1726 in phosphorylation of the molecules in the PI-3 kinase pathway.

[3] = test system: ERK1/2^T202/Y204 and MEK1/2^S217/S221 phosphorylation; assay: Western blot of MAP kinase pathway phosphorylation in A375 cells; type: cell-based
Method: as §1, §2, §3, §4

Raf-1 phosphorylation = assay: Western blot of Raf-1 phosphorylation in A375 cells; type: cell-based
Method: A375 cells seeded in a 6-well plate were starved in DMEM medium containing 0.5% FBS for 2 hr and treated with the indicated concentration of A77 1726 or PLX 4720 (1 μM) for another 2 hr (A) or treated with A77 1726 (100 μM) for the indicated time (B & C). Cells were harvested and analyzed for protein phosphorylation by specific antibodies as indicated. Protein loading was monitored by stripping membrane and re-probing with antibodies against non-phosphorylated proteins. (D) Uridine fails to reverse the effect of A77 1726 on the PI-3 and MAP kinase pathways. A375 cells seeded in a 6-well plate were starved in DMEM medium containing 05% FBS for 2 hr and treated with the indicated concentration of A77 1726 in the absence or presence of uridine (200 μM). Phosphorylated and total proteins were analyzed by Western blot as described above.
Cells grown in 6-well plates were harvested and lysed in NP-40 lysis buffer (50 mM Tris-HCI (pH 8.0), 150 mM NaCl, 1% NP-40, 5 mM EDTA, 10 μg/ml aprotinin, 10 μg/ml leupeptin, and 1 mM phenylmethylsulfonyl fluoride). After incubation on ice for 30 min, the cell lysates were prepared by spinning down at 4° C., 15,000 rpm for 15 min. […]

Chain of recombinant p70 S6 kinase (S6K1) (P23443 whole entry): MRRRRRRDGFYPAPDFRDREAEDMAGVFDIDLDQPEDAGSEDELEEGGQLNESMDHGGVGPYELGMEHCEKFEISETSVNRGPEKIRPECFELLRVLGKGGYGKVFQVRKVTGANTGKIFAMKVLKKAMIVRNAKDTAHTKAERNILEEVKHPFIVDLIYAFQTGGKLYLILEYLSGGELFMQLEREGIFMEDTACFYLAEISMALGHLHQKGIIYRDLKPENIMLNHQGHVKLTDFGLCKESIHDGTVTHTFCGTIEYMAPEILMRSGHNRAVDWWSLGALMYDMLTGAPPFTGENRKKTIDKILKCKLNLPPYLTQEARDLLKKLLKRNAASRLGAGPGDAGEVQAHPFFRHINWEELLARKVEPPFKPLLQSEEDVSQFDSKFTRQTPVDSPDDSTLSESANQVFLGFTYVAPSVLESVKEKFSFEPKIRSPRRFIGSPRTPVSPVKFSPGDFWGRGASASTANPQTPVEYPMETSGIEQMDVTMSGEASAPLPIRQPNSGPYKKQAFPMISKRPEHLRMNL

IC50 [1]: ~55 µM
IC50 [2]: 50 to 75 µM
SMILES: Cc1oncc1C(=O)Nc1ccc(C(F)(F)F)cc1 [leflunomide]
effect on ERK1/2 and MEK phosphorylation ([3]; A375 cells starved in 0.5% FBS, A77 1726 or leflunomide at indicated concentrations, 2 hr): rapidly and potently induced
potency in inducing feedback activation of the MAP kinase pathway ([3]; A375 cells, compared with A77 1726): slightly more potent than A77 1726
effect on Raf-1 phosphorylation (Raf-1 phosphorylation): no increased Raf-1 phosphorylation

Reference: patent US20140121235A1, “Method for Treating S6K-Overexpressing Cancers” (Rush University Medical Center, priority 2012, published 2014)
